Source: US11865183B2, “Conjugates and conjugating reagents comprising a linker that includes at least two (−CH2—CH2—O—) units in a ring” (priority 2016, dated 2024)
“And” between values parts separate entries of the source, which are not always exact repeats. Equal entries are not always repeated. Non-standard residues stand in square brackets, D forms with d. Residues, ends and D or L forms follow the SMILES beside them. *: point of attachment. Dolaproine = CO[C@@H]([C@@H]1CCCN1)[C@@H](C)C(=O)O; Dil = CC[C@H](C)[C@H](NC)[C@@H](CC(=O)O)OC; X1 = C[C@@H](N*)[C@@H](O)c1ccccc1; NMeV = CN[C@H](C(=O)O)C(C)C

Tests used:
Karpas 299 cells (CD30) = assay: In vitro cell viability assay (Cell-Titer Glo), Karpas 299; type: cell-based, Human; conditions: Karpas 299, 96 h treatment
Text: Viability was expressed as % of untreated cells and calculated using the following formula: […]

LNCaP cells (PSMA) = assay: In vitro cell viability assay (Cell-Titer Glo), LNCaP; type: cell-based; conditions: 96 h treatment
Text: (§1) Loss of tumour cell viability following treatment with cytotoxic drugs in vitro can be measured by growing cell lines in the presence of increasing concentrations of drug and quantifying the loss of proliferation or metabolic activity using Cell-Titer Glo® Luminescent reagent (Promega). The protocol for PSMA and CD30 overexpressing cell lines describes cell seeding, drug treatment and determination of the cell viability in reference to untreated cells based on ATP synthesis, which is directly correlated to the number of cells present in the well.
(§2) The cell lines listed in Table 2 were maintained following the suppliers' recommendations.
(§3) Adherent PSMA-positive LNCaP and C4-2 cells were detached with TrypLE and resuspended in complete medium. Cells were counted using disposable Neubauer counting chambers and cell density adjusted to 10×10^4 cells/mL for LNCaP and 2×10^4 cells/mL for C4-2, respectively. […]
(§4) The cell viability assay was carried out using the Cell-Titer Glo® Luminescence reagent, as described by the manufacturer's instructions, (Promega Corp. Technical Bulletin TB288; Lewis Phillips G. D, Cancer Res 2008; 68:9280-9290).
(§5) Luminescence was recorded using a Molecular Devices Spectramax i3x plate reader and data subsequently analysed using GraphPad Prism four parameter non-linear regression model. […]

C4-2 cells (PSMA) = assay: In vitro cell viability assay (Cell-Titer Glo), C4-2; type: cell-based; conditions: C4-2, 96 h treatment
Text: as §1, §2, §3, §4, §5

[1] = system: Karpas-299 cells (T-anaplastic large cell lymphoma, ALCL); assay: Karpas-299 mouse xenograft study; type: in vivo, CB17-SCID mice; conditions: single i.v. 1 mg/kg on day 12, groups of eight mice
Procedure: Healthy female CB17-SCID mice (CBySmn.CB17-Prkdcscid/J, Charles River Laboratories) with an average body weight of 18.1 g were used for cell inoculation (Day 0). 24 to 72 h prior to tumour cell injection, the mice were γ-irradiated (1.44 Gy, ^60Co). The animals were maintained in SPF health status according to the FELASA guidelines in housing rooms under controlled environmental conditions.
Tumours were induced by subcutaneous injection of 10^7 Karpas-299 cells (T-anaplastic large cell lymphoma, ALCL) in 200 μL of RPMI 1640 into the right flank. Tumours were measured twice a week with calipers, and the volume was estimated using the formula: […]
Twelve days after tumour implantation (Day 12), the animals were randomised into groups of eight mice using Vivo manager® software (211 mm^3 mean tumour volume) and treatment was initiated. The animals from the vehicle group received a single intravenous (i.v.) injection of PBS. The treated groups were dosed with a single i.v. injection of ADC at 0.8 mg/kg, or Adcetris© (brentuximab vedotin) at 1 mg/kg.
Treatment tolerability was assessed by bi-weekly body weight measurement and daily observation for clinical signs of treatment-related side effects. Mice were euthanized when a humane endpoint was reached (e.g. 1,600 mm^3 tumour volume) or after a maximum of 9 weeks post-dosing. Asterisks within the graphs indicate where animals were euthanized. […]

Compound | IC50 (Karpas 299 cells (CD30)) | IC50 (LNCaP cells (PSMA)) | IC50 (C4-2 cells (PSMA)) | Animals with tumour re-growth ([1]; after day 20) | Animals with no measureable tumour at end of study (day 71) [1]
CC[C@H](C)[C@@H]([C@@H](CC(=O)N1CCC[C@H]1[C@H](OC)[C@@H](C)C(=O)N[C@H](C)[C@@H](O)c1ccccc1)OC)N(C)C(=O)[C@@H](NC(=O)[C@@H](NC)C(C)C)C(C)C [MMAE, monomethyl auristatin E] (H-[NMeV]V[Dil][Dolaproine]-X1) | 0.15 nM and 0.2 nM | 2.14 nM | 0.71 nM |  | 
brentuximab vedotin [Adcetris®] |  |  |  | 7/8 | 1/8
